Experimental findings from patent publication US20230011869A1 (Hoffmann-La Roche Inc., priority 2018, published 2023) are described below.

Counter-ions that a name gives are not always drawn.

For the first test, the system named is Acinetobacter baumannii ATCC17978. In words: Antimicrobial susceptibility testing: 90% growth inhibitory concentration (IC90) determination, Iso-Sensitest broth. The class given is cell-based. The conditions noted are these: 90% growth inhibitory concentration, Acinetobacter baumannii ATCC17978, Iso-Sensitest broth, OD 600 nm over 16 h; read-out: ATCC17978 IC90. A digest of the protocol:
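A. baumannii ATCC17978 grown in Iso-Sensitest broth across 10 compound concentrations at 35±2 °C.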
As to `COc1ccc(-c2cnc3c(Nc4ccc(C(=O)N5CCC(C(=O)NC(CO)(CO)CO)CC5)c(C)c4)nccn23)cc1F` [Example 388, N-[1,3-dihydroxy-2-(hydroxymethyl)propan-2-yl]-1-[4-[[3-(3-fluoro-4-methoxyphenyl)imidazo[1,2-a]pyrazin-8-yl]amino]-2-methylbenzoyl]piperidine-4-carboxamide], the IC90 turned out to be 260 nM.
`COc1ccc(-c2cnc3c(Nc4ccc(C(=O)N5CCN(S(N)(=O)=O)CC5)c(C)c4)nccn23)cc1F` [Example 389, 4-[4-[[3-(3-fluoro-4-methoxyphenyl)imidazo[1,2-a]pyrazin-8-yl]amino]-2-methylbenzoyl]piperazine-1-sulfonamide]: the IC90 turned out to be 310 nM.
The same measure, in the same setting: to `COc1ccc(-c2cnc3c(Nc4ccc(C(=O)N5CCC(N6CCCC(CO)C6)CC5)c(C)c4)nccn23)cc1F` (stereo not shown) [Example 390, [4-[[3-(3-fluoro-4-methoxyphenyl)imidazo[1,2-a]pyrazin-8-yl]amino]-2-methylphenyl]-[4-[3-(hydroxymethyl)piperidin-1-1-yl)piperidin-1-yl]methanone] belongs 320 nM.
Same read-out and setting: for `COc1ccc(-c2cnc3c(Nc4ccc(C(=O)N5CCC(C(=O)N6CCNC7(CC7)C6)CC5)c(C)c4)nccn23)cc1F` [Example 395, [4-(4,7-diazaspiro[2.5]octane-7-carbonyl)piperidin-1-yl]-[4-[[3-(3-fluoro-4-methoxyphenyl)imidazo[1,2-a]pyrazin-8-yl]amino]-2-methylphenyl]methanone; hy-drochloride] the value was 340 nM; for `COc1ccc(-c2cnc3c(Nc4ccc(C(=O)N5CCC(C(=O)NCCNCCO)CC5)c(C)c4)nccn23)cc1F` [Example 396, 1-[4-[[3-(3-fluoro-4-methoxyphenyl)imidazo[1,2-a]pyrazin-8-yl]amino]-2-methylbenzoyl]-N-[2-(2-hydroxyethylamino)ethyl]pi-peridine-4-carboxamide; 2,2,2-trifluoroacetic acid], 340 nM; for `COc1ccc(-c2cnc3c(Nc4ccc(C(=O)N5CCC(C(=O)N6CCN(c7nccn7C)CC6)CC5)c(C)c4)nccn23)cc1F` [Example 397, [4-[[3-(3-fluoro-4-methoxyphenyl)imidazo[1,2-a]pyrazin-8-yl]amino]-2-methylphenyl]-[4-[4-(1-methylimidazol-2-yl)piperazine-1-carbonyl]piperidin-1-yl]methanone], 360 nM.
The same measure, in the same setting: to `CCc1cc(Nc2nccn3c(-c4ccc(OC)c(F)c4)cnc23)ccc1C(=O)N1CCN(C(=O)CNC)CC1` [Example 398, 1-[4-[2-ethyl-4-[[3-(3-fluoro-4-methoxyphenyl)imidazo[1,2-a]pyrazin-8-yl]amino]benzoyl]piperazin-1-yl]-2-(methylamino)ethanone; hy-drochloride] belongs 370 nM; to `COc1ccc(-c2cnc3c(Nc4ccc(C(=O)N5CCC(CNCCC#N)CC5)c(C)c4)nccn23)cc1` [Example 399, 3-[[1-[4-[[3-(4-methoxyphenyl)imidazo[1,2-a]pyrazin-8-yl]amino]-2-methylbenzoyl]piperidin-4-yl]methylamino]propanenitrile], 380 nM.
Consider `COc1ccc(-c2cnc3c(Nc4ccc(C(=O)N5CCC(N6CCC(O)CC6)CC5)c(C)c4)nccn23)cc1F` [Example 401, [4-[[3-(3-fluoro-4-methoxyphenyl)imidazo[1,2-a]pyrazin-8-yl]amino]-2-methylphenyl]-[4-(4-hydroxypiperidin-1-yl)piperidin-1-yl]methanone], for which the IC90 is 400 nM.
The same measure, in the same setting: to `COc1ccc(-c2cnc3c(Nc4ccc(C(=O)N5CCC(C(=O)NCC(O)CO)CC5)c(C)c4)nccn23)cc1F` (stereo not shown) [Example 402, N-(2,3-dihydroxypropyl)-1-[4-[[3-(3-fluoro-4-methoxyphenyl)imidazo[1,2-a]pyrazin-8-yl]amino]-2-methylbenzoyl]piperidine-4-carboxamide] belongs 430 nM; to `COc1ccc(-c2cnc3c(Nc4ccc(C(=O)N5CCN(S(=O)(=O)N(C)C)CC5)c(C)c4)nccn23)cc1F` [Example 408, 4-[4-[[3-(3-fluoro-4-methoxyphenyl)imidazo[1,2-a]pyrazin-8-yl]amino]-2-methylbenzoyl]-N,N-dimethylpiperazine-1-sulfonamide], 550 nM.
Still for that read-out and setting: for `COc1ccc(-c2cnc3c(Nc4ccc(C(=O)N5CCN(CC(C)O)CC5)c(C)c4)nccn23)cc1F` (stereo not shown) [Example 410, [4-[[3-(3-fluoro-4-methoxyphenyl)imidazo[1,2-a]pyrazin-8-yl]amino]-2-methylphenyl]-[4-(2-hydroxypropyl)piperazin-1-yl]methanone] the value was 670 nM; for `COc1ccc(-c2cnc3c(Nc4ccc(C(=O)N5CCN(CCOCCO)CC5)c(C)c4)nccn23)cc1F` [Example 411, [4-[[3-(3-fluoro-4-methoxyphenyl)imidazo[1,2-a]pyrazin-8-yl]amino]-2-methylphenyl]-[4-[2-(2-hydroxyethoxy)ethyl]pipera-zin-1-yl]methanone], 720 nM.

Staying with this test, now noted: Acinetobacter baumannii, ATCC17978, 16 h, read-out: ATCC17978 IC90, 90% growth inhibitory concentration, Acinetobacter baumannii ATCC17978, Iso-Sensitest broth, OD 600 nm over 16 h.
Regarding `CNCCN(C)C(=O)C1CCN(C(=O)c2ccc(Nc3nccn4c(-c5ccc(OC)c(F)c5)cnc34)cc2C)CC1` [Example 391, 1-[4-[[3-(3-fluoro-4-methoxyphenyl)imidazo[1,2-a]pyrazin-8-yl]amino]-2-methylbenzoyl]-N-methyl-N-[2-(methylamino)ethyl]piperidine-4-carboxamide; hydrochloride], the IC90 is 340 nM.
For `COc1ccc(-c2cnc3c(Nc4ccc(C(=O)N5CCC(C(=O)N6CC[C@@H](N)[C@@H](O)C6)CC5)c(C)c4)nccn23)cc1F` [Example 392, [4-[(3S,4R)-4-amino-3-hydroxypiperidine-1-carbonyl]piperidin-1-yl]-[4-[[3-(3-fluoro-4-methoxyphenyl)imidazo[1,2-a]pyrazin-8-yl]amino]-2-methylphenyl]methanone; 2,2,2-trifluoroacetic acid], the IC90 is 340 nM.
Take `COc1ccc(-c2cnc3c(Nc4ccc(C(=O)N5CCC(C(=O)NCCN)CC5)c(C)c4)nccn23)cc1F` [Example 393, N-(2-aminoethyl)-1-[4-[[3-(3-fluoro-4-methoxyphenyl)imidazo[1,2-a]pyrazin-8-yl]amino]-2-methylbenzoyl]piperidine-4-carboxamide; hydrochloride]: the IC90 is 340 nM.
For `COc1ccc(-c2cnc3c(Nc4ccc(C(=O)N5CCC(CN)CC5)c(C(F)(F)F)c4)nccn23)cc1F` [Example 394, [4-(aminomethyl)piperidin-1-yl]-[4-[[3-(3-fluoro-4-methoxyphenyl)imidazo[1,2-a]pyrazin-8-yl]amino]-2-(trifluoromethyl)phenyl]meth-anone; formic acid], the IC90 amounted to 340 nM.
Same read-out and setting: for `COc1ccc(-c2cnc3c(Nc4ccc(C(=O)N5CCC(C(=O)N6CC7(CNC7)C6)CC5)c(C)c4)nccn23)cc1F` [Example 400, [4-(2,6-diazaspiro[3.3]heptane-2-carbonyl)piperidin-1-yl]-[4-[[3-(3-fluoro-4-methoxyphenyl)imidazo[1,2-a]pyrazin-8-yl]amino]-2-methylphenyl]methanone; 2,2,2-trifluoroacetic acid] the value was 390 nM; for `COc1ccc(-c2cnc3c(Nc4ccc(C(=O)N5CCC(C(=O)NCC6CNCCN6)CC5)c(C)c4)nccn23)cc1F` (stereo not shown) [Example 403, 1-[4-[[3-(3-fluoro-4-methoxyphenyl)imidazo[1,2-a]pyrazin-8-yl]amino]-2-methylbenzoyl]-N-(piperazin-2-ylmethyl)piperidine-4-carboxamide; 2,2,2-trifluoroacetic acid], 440 nM; for `Cc1cc(Nc2nccn3c(-c4ccc(OC(F)F)cc4)cnc23)ccc1C(=O)N1CCC(C(=O)N(C)CCN2CCNC(=O)C2)CC1` [Example 404, 1-[4-[[3-[4-(difluoromethoxy)phenyl]imi-dazo[1,2-a]pyrazin-8-yl]amino]-2-methylbenzoyl]-N-methyl-N-[2-(3-oxopiperazin-1-yl)ethyl]piperidine-4-carboxamide], 470 nM.
Same read-out and setting: for `Cc1cc(Nc2nccn3c(-c4ccc(OC(F)F)cc4)cnc23)ccc1C(=O)N1CCC(C(=O)NC23CN4CN(CN(C4)C2)C3)CC1` [Example 405, 1-[4-[[3-[4-(difluoromethoxy)phenyl]imi-dazo[1,2-a]pyrazin-8-yl]amino]-2-methylbenzoyl]-N-(1,3,5-triazatricyclo[3.3.1.1^3,7]decan-7-yl)piperidine-4-carboxamide] the value was 480 nM; for `COc1ccc(-c2cnc3c(Nc4ccc(C(=O)N5CCC(C(=O)N(C)CCCN)CC5)c(C)c4)nccn23)cc1F` [Example 406, N-(3-aminopropyl)-1-[4-[[3-(3-fluoro-4-methoxyphenyl)imidazo[1,2-a]pyrazin-8-yl]amino]-2-methylbenzoyl]-N-methylpiperidine-4-carboxamide; hydrochloride], 530 nM.
Still for that read-out and setting: to `COc1ccc(-c2cnc3c(Nc4ccc(C(=O)N5CCC(C(=O)NC6(C(N)=O)CNC6)CC5)c(C)c4)nccn23)cc1F` [Example 407, N-(3-carbamoylazetidin-3-yl)-1-[4-[[3-(3-fluoro-4-methoxyphenyl)imidazo[1,2-a]pyrazin-8-yl]amino]-2-methylbenzoyl]piperidine-4-carboxamide; 2,2,2-trifluoroacetic acid] belongs 540 nM; to `Cc1cc(Nc2nccn3c(-c4ccc(OC(F)F)cc4)cnc23)ccc1C(=O)N1CCC(C(=O)N(C)CCO)CC1` [Example 409, 1-[4-[[3-[4-(difluoromethoxy)phenyl]imi-dazo[1,2-a]pyrazin-8-yl]amino]-2-methylbenzoyl]-N-(2-hydroxyethyl)-N-methylpiperidine-4-carboxamide], 580 nM; to `COc1ccc(-c2cnc3c(Nc4ccc(C(=O)N5CCC(C(=O)NCCN6CCNCC6=O)CC5)c(C)c4)nccn23)cc1F` [Example 412, 1-[4-[[3-(3-fluoro-4-methoxyphenyl)imidazo[1,2-a]pyrazin-8-yl]amino]-2-methylbenzoyl]-N-[2-(2-oxopiperazin-1-yl)ethyl]piperidine-4-carboxamide; 2,2,2-trifluoroacetic acid], 760 nM.
